# In ChEMBL document CHEMBL3885861, “Open TG-GATES”:
# Species: Rattus norvegicus
# Assay: Open TG-GATES - Regimen: Single
# Format: toxicity, organism-based, Sprague-Dawley
# Parameters: regimen Single, gender Male, age 6 weeks
# Conditions: in vivo, po, 30 mg/kg, route gavage, dose level High; for APTT / Bas / Eos / Fbg / Hb / Ht / Lym / MCH / MCHC / MCV / Mono / Neu / PT / Plat / RBC / Ret / WBC: tissue Blood; for KIDNEY_L / KIDNEY_R / KIDNEY_TOTAL: tissue Kidney; for LIVER: tissue Liver; for A/G / ALP / ALT / AST / BUN / CRE / Ca / Cl / DBIL / GLC / IP / K / LDH / Na / PL / RALB / TBIL / TC / TG / TP / gamma-GTP: tissue Plasma
structure (smiles),measurement,setting,value
CN(C)CCC(c1ccc(Cl)cc1)c1ccccn1 (configuration not stated) [CHLORPHENIRAMINE],TERMINAL_BW,3 h,197.2 g
same,APTT,3 h,16.3 s
same,Bas,3 h,0%
same,Eos,3 h,0.8%
same,Fbg,3 h,287.6 mg/dL
same,Hb,3 h,13.5 g/dL
same,Ht,3 h,42.6%
same,Lym,3 h,74.2%
same,MCH,3 h,21.2 pg
same,MCHC,3 h,31.8%
same,MCV,3 h,66.5 fL
same,Mono,3 h,3.4%
same,Neu,3 h,21%
same,PT,3 h,14.8 s
same,Plat,3 h,128.4 x10_4/uL
same,RBC,3 h,640.8 x10_4/ul
same,Ret,3 h,10.2%
same,WBC,3 h,67.1 x10_2/uL
same,KIDNEY_L,3 h,0.9 g
same,KIDNEY_R,3 h,0.9 g
same,KIDNEY_TOTAL,3 h,1.7 g
same,LIVER,3 h,9 g
same,A/G,3 h,0.9
same,ALP,3 h,1548.6 IU/L
same,ALT,3 h,43.6 IU/L
same,AST,3 h,79.2 IU/L
same,BUN,3 h,8.4 mg/dL
same,CRE,3 h,0.1 mg/dL
same,Ca,3 h,10.5 mg/dL
same,Cl,3 h,108.8 meq/L
same,DBIL,3 h,0.008 mg/dL
same,GLC,3 h,183.6 mg/dL
same,IP,3 h,10 mg/dL
same,K,3 h,4.1 meq/L
same,LDH,3 h,139.4 IU/L
same,Na,3 h,143.4 meq/L
same,PL,3 h,146.6 mg/dL
same,RALB,3 h,2.6 g/dL
same,TBIL,3 h,0.046 mg/dL
same,TC,3 h,79 mg/dL
same,TG,3 h,59 mg/dL
same,TP,3 h,5.5 g/dL
same,gamma-GTP,3 h,1.2 IU/L
same,TERMINAL_BW,6 h,191.8 g
same,APTT,6 h,24.9 s
same,Bas,6 h,0%
same,Eos,6 h,0.8%
same,Fbg,6 h,302 mg/dL
same,Hb,6 h,13.8 g/dL
same,Ht,6 h,42.4%
same,Lym,6 h,73.2%
same,MCH,6 h,20.9 pg
same,MCHC,6 h,32.5%
same,MCV,6 h,64.2 fL
same,Mono,6 h,3.4%
same,Neu,6 h,21.8%
same,PT,6 h,14.7 s
same,Plat,6 h,130.7 x10_4/uL
same,RBC,6 h,659.8 x10_4/ul
same,Ret,6 h,8.9%
same,WBC,6 h,76.3 x10_2/uL
same,KIDNEY_L,6 h,0.8 g
same,KIDNEY_R,6 h,0.8 g
same,KIDNEY_TOTAL,6 h,1.6 g
same,LIVER,6 h,8.2 g
same,A/G,6 h,0.9
same,ALP,6 h,1166.8 IU/L
same,ALT,6 h,37.4 IU/L
same,AST,6 h,72.4 IU/L
same,BUN,6 h,7.6 mg/dL
same,CRE,6 h,0.1 mg/dL
same,Ca,6 h,10.5 mg/dL
same,Cl,6 h,108 meq/L
same,DBIL,6 h,0.006 mg/dL
same,GLC,6 h,181 mg/dL
same,IP,6 h,10.2 mg/dL
same,K,6 h,4.4 meq/L
same,LDH,6 h,126 IU/L
same,Na,6 h,142.4 meq/L
same,PL,6 h,138.4 mg/dL
same,RALB,6 h,2.5 g/dL
same,TBIL,6 h,0.042 mg/dL
same,TC,6 h,83.6 mg/dL
same,TG,6 h,35 mg/dL
same,TP,6 h,5.4 g/dL
same,gamma-GTP,6 h,1.4 IU/L
same,TERMINAL_BW,9 h,189.4 g
same,APTT,9 h,19.9 s
same,Bas,9 h,0%
same,Eos,9 h,1%
same,Fbg,9 h,317 mg/dL
same,Hb,9 h,13.6 g/dL
same,Ht,9 h,42.2%
same,Lym,9 h,73.8%
same,MCH,9 h,20.7 pg
same,MCHC,9 h,32.3%
same,MCV,9 h,64.2 fL
same,Mono,9 h,2.6%
same,Neu,9 h,22.2%
same,PT,9 h,14.9 s
same,Plat,9 h,115 x10_4/uL
same,RBC,9 h,656.4 x10_4/ul
same,Ret,9 h,9.1%
same,WBC,9 h,68.4 x10_2/uL
same,KIDNEY_L,9 h,0.9 g
same,KIDNEY_R,9 h,0.9 g
same,KIDNEY_TOTAL,9 h,1.7 g
same,LIVER,9 h,8 g
same,A/G,9 h,0.9
same,ALP,9 h,1297.6 IU/L
same,ALT,9 h,35.2 IU/L
same,AST,9 h,71.8 IU/L
same,BUN,9 h,7.4 mg/dL
same,CRE,9 h,0.1 mg/dL
same,Ca,9 h,10.2 mg/dL
same,Cl,9 h,106.4 meq/L
same,DBIL,9 h,0.008 mg/dL
same,GLC,9 h,171.8 mg/dL
same,IP,9 h,10.4 mg/dL
same,K,9 h,4 meq/L
same,LDH,9 h,95 IU/L
same,Na,9 h,142.4 meq/L
same,PL,9 h,145 mg/dL
same,RALB,9 h,2.5 g/dL
same,TBIL,9 h,0.056 mg/dL
same,TC,9 h,84.2 mg/dL
same,TG,9 h,45 mg/dL
same,TP,9 h,5.4 g/dL
same,gamma-GTP,9 h,1.2 IU/L
same,TERMINAL_BW,24 h,198.3 g
same,APTT,24 h,17 s
same,Bas,24 h,0.2%
same,Eos,24 h,1.2%
same,Fbg,24 h,324.6 mg/dL
same,Hb,24 h,13.6 g/dL
same,Ht,24 h,41.8%
same,Lym,24 h,79.8%
same,MCH,24 h,20.8 pg
same,MCHC,24 h,32.6%
same,MCV,24 h,63.8 fL
same,Mono,24 h,2.6%
same,Neu,24 h,15.6%
same,PT,24 h,14.8 s
same,Plat,24 h,114.6 x10_4/uL
same,RBC,24 h,655.4 x10_4/ul
same,Ret,24 h,7.8%
same,WBC,24 h,93.8 x10_2/uL
same,KIDNEY_L,24 h,0.9 g
same,KIDNEY_R,24 h,0.9 g
same,KIDNEY_TOTAL,24 h,1.8 g
same,LIVER,24 h,8 g
same,A/G,24 h,0.9
same,ALP,24 h,1572.4 IU/L
same,ALT,24 h,45.8 IU/L
same,AST,24 h,78.4 IU/L
same,BUN,24 h,12.4 mg/dL
same,CRE,24 h,0.2 mg/dL
same,Ca,24 h,10.8 mg/dL
same,Cl,24 h,109 meq/L
same,DBIL,24 h,0.012 mg/dL
same,GLC,24 h,185 mg/dL
same,IP,24 h,7.9 mg/dL
same,K,24 h,4.6 meq/L
same,LDH,24 h,120.4 IU/L
same,Na,24 h,142.4 meq/L
same,PL,24 h,145.4 mg/dL
same,RALB,24 h,2.6 g/dL
same,TBIL,24 h,0.046 mg/dL
same,TC,24 h,89.4 mg/dL
same,TG,24 h,41.4 mg/dL
same,TP,24 h,5.6 g/dL
same,gamma-GTP,24 h,1.4 IU/L
